According to publication PMC8742467, “Therapeutical interference with the epigenetic landscape of germ cell tumors: a comparative drug study and new mechanistical insights” (Clinical Epigenetics, 2022):

Assays:
[1] = test system: DNA methylation (5mC, 5hmC) in 2102EP cells; test: DNA slot blot (5mC, 5hmC); type: cell-based, Human; conditions: 24 h
Method: Purity of DNA was verified using NanoDrop 260/280 ratio and agarose gel electrophoresis. DNA was diluted in H2O to 200 ng, 100 ng and 50 ng in 200 µl per slot. Slot-Blotter device (Carl Roth GmbH + Co KG, Karlsruhe, Germany) was assembled as according to the manual. DNA was blotted onto a positively charged nylon membrane (Carl Roth GmbH + Co KG, Karlsruhe, Germany) using vacuum application. Three identical membranes were prepared. The membranes were air-dried for 15—20 min and UV-crosslinked (20 s (s), 1200 mJ/cm^2). One membrane was stained with methylene blue (0.02% methylene blue (Merck Millipore, Darmstadt, Germany) in 0.3 M sodium acetate (pH 5.2)) to validate DNA loading across the samples. The remaining two membranes were blocked in 5% milk powder in PBST for 1 h at RT. Membranes were incubated with 5mC or 5hmC antibody overnight at 4 °C. After washing, membranes were incubated with secondary antibody for 2 h at RT. Signals were detected using the ChemiDoc Imaging Systems (Bio-Rad Laboratories, Feldkirchen, Germany).

[2] = test system: transcriptome of 2102EP cells; test: RNA sequencing; type: cell-based, Human; conditions: 16 h
Method: Transcriptome analysis has been performed as previously described at the core facility ‘Genomics & Transcriptomics’ (Prof. Dr. Karl Köhrer, Biomedical Research Center, Heinrich Heine University, Düsseldorf, Germany) and has been publicly shared via GEO (https://www.ncbi.nlm.nih.gov/geo/, GSE189472). RNA samples were quantified and measured as previously described. Statistical analyses were performed using the ‘Differential Expression in two groups’ tool (version 1.02) (Qiagen) and the resulting p values were corrected for multiple testing by false discovery rate (FDR). Accompanying PCA and heatmap were generated using Qlucore Omics Explorer 3.7 (Qlucore AB, Lund, Sweden). Values of solvent controls wereaveraged from the studies GSE189472, GSE190792 and GSE190022 [95].

GCT cell lines = test: XTT cell viability assay, GCT cell lines (pre-screen / summary); type: cell-based, Human; conditions: first pre-screen, SE and EC proxies TCam-2 and 2102EP, XTT
Method: The […] (XTT) assays were performed as described previously. In summary, for GCT and fibroblast cell lines 5 × 10^3 cells (3 × 10^3 for UC, PCa and RCC cell lines) per 96-well were seeded and different drug concentrations (see Additional file 2: Fig. S2, Additional file 3: Fig. S3) or corresponding solvents were added to the cells the following day. For drug details see Additional file 12: Table S2 C. Each condition was analyzed in four technical replicates and EC50 values were calculated by GraphPad Prism v8.

[3] = test system: histone modifications in 2102EP cells; test: Mass spectrometry analysis of histone modifications (Mod Spec); type: cell-based, Human
Method: 2102EP cells were treated with the EC50 concentrations for Quisinostat, JIB-04, Chaetocin, MZ-1, LP99, PRT4165, GSK343 and DMSO as solvent control. The cells were harvested via trypsinization after 16 h. The mass spectrometric analysis of histone modifications was outsourced to the Mod Spec service by Active Motif (Carlsbad, CA, USA). Histone extraction and mass spectrometric analysis was performed as described previously. Raw data were transformed into z-scores as the input. The heatmap was generated in R using ‘pheatmap’ with default settings and provided by Active Motif.

[4] = test system: phosphorylated kinase targets in 2102EP cells; test: Proteome Profiler Human Phospho-Kinase Array; type: cell-based; conditions: 16 h
Method: For the detection of phosphorylated kinase targets, the Proteome Profiler Human Phospho-Kinase Array Kit (R&D Systems, Abingdon, UK) was used according to the manufacturer’s instructions. The ChemiDoc Imaging System (Bio-Rad Laboratories, Feldkirchen, Germany) was used for detection. 2102EP cells were harvested after 16 h of treatment with the epi-drugs. Pixel density was analyzed using Fiji ImageJ 1.53c.

[5] = sorted data log2>±1.5, FDR p<0.05
[6] = 2102EP cells, Mod Spec raw data
[7] = 2102EP, EC50, 16 h, vs solvent control

## Clc1ccc(N/N=C(\c2ccccc2)c2ccccn2)nc1 [JIB-04]
[1]
  reduction in 5mC levels: 27%
[2]; [5]
  DDIT4 Log2 fold change vs. DMSO: 1.60
  EIF3CL Log2 fold change vs. DMSO: -1.72
  SLC16A3 Log2 fold change vs. DMSO: 1.76
[2]; unsorted data
  A1BG Log2 fold change vs. DMSO: -0.0173
  A1CF Log2 fold change vs. DMSO: -2.00
  A2M Log2 fold change vs. DMSO: 0.04
GCT cell lines
  EC50 / effective concentration in words: nanomolar range
[3]; [6]
  H1.4: K25AC, % of peptide pool: 0.003915%
  H1.4: K25ME1, % of peptide pool: 2.18%
  H1.4: K25ME2, % of peptide pool: 0.06041%
  H1.4: K25ME3, % of peptide pool: 0.002903%
  H1.4: K25UN, % of peptide pool: 97.7528%
  H2A1: K13AC, % of peptide pool: 0.01774%
  H2A1: K13UN, % of peptide pool: 99.9823%
  H2A1: K15AC, % of peptide pool: 0.006947%
  H2A1: K15UB, % of peptide pool: 0%
  H2A1: K15UN, % of peptide pool: 99.9931%
  H2A3: K13AC, % of peptide pool: 0.0449%
  H2A3: K13UN, % of peptide pool: 99.9551%
  H2A3: K15AC, % of peptide pool: 0.04676%
  H2A3: K15UB, % of peptide pool: 0%
  H2A3: K15UN, % of peptide pool: 99.9532%
  H2A: K5AC, % of peptide pool: 17.3435%
  H2A: K5UN, % of peptide pool: 82.6565%
  H2A: K9AC, % of peptide pool: 2.608%
  H2A: K9UN, % of peptide pool: 97.3916%
  H2A: K36AC, % of peptide pool: 0.02653%
  H2A: K36UN, % of peptide pool: 99.9735%
  H3: K9AC, % of peptide pool: 0.7026%
  H3: K9ME1, % of peptide pool: 34.4011%
  H3: K9ME2, % of peptide pool: 29.5437%
  H3: K9ME3, % of peptide pool: 3.1432%
  H3: K9UN, % of peptide pool: 32.2094%
  H3: K14AC, % of peptide pool: 29.7131%
  H3: K14UN, % of peptide pool: 70.2869%
  H3: K18AC, % of peptide pool: 13.9058%
  H3: K18ME1, % of peptide pool: 0.1878%
  H3: K18UN, % of peptide pool: 85.9064%
  H3: K23AC, % of peptide pool: 21.6519%
  H3: K23ME1, % of peptide pool: 0.01047%
  H3: K23UN, % of peptide pool: 78.3377%
  H3: K56AC, % of peptide pool: 0.09324%
  H3: K56ME1, % of peptide pool: 0.04566%
  H3: K56UN, % of peptide pool: 99.8611%
  H3: K64AC, % of peptide pool: 0.01353%
  H3: K64UN, % of peptide pool: 99.9865%
  H3: K79AC, % of peptide pool: 0.03684%
  H3: K79ME1, % of peptide pool: 12.2939%
  H3: K79ME2, % of peptide pool: 5.57%
  H3: K79ME3, % of peptide pool: 6.201%
  H3: K79UN, % of peptide pool: 75.8979%
  H3: K122AC, % of peptide pool: 0.03356%
  H3: K122UN, % of peptide pool: 99.9664%
  H3: Q19ME1, % of peptide pool: 0.003167%
  H3: Q19UN, % of peptide pool: 99.9968%
  H3: Q55ME1, % of peptide pool: 0.032%
  H3: Q55UN, % of peptide pool: 99.968%
  H3: R42ME2, % of peptide pool: 1.896%
  H3: R42UN, % of peptide pool: 98.1041%
  H3: R49ME2, % of peptide pool: 4.211%
  H3: R49UN, % of peptide pool: 95.789%
  H3R2UN: K4AC, % of peptide pool: 0.05876%
  H3R2UN: K4ME1, % of peptide pool: 17.7716%
  H3R2UN: K4ME2, % of peptide pool: 0.2231%
  H3R2UN: K4ME3, % of peptide pool: 0.06844%
  H3R2UN: K4UN, % of peptide pool: 81.8781%
  H3R2UN: Q5ME1, % of peptide pool: 0.02831%
  H3R2UN: Q5UN, % of peptide pool: 99.9717%
  H3.1: K27AC, % of peptide pool: 2.414%
  H3.1: K27ME1, % of peptide pool: 49.3304%
  H3.1: K27ME2, % of peptide pool: 16.204%
  H3.1: K27ME3, % of peptide pool: 1.814%
  H3.1: K27UN, % of peptide pool: 30.2382%
  H3.1: K36AC, % of peptide pool: 0.1106%
  H3.1: K36ME1, % of peptide pool: 13.2702%
  H3.1: K36ME2, % of peptide pool: 51.7553%
  H3.1: K36ME3, % of peptide pool: 20.9267%
  H3.1: K36UN, % of peptide pool: 13.9372%
  H3.3: K27AC, % of peptide pool: 4.408%
  H3.3: K27M, % of peptide pool: 0%
  H3.3: K27ME1, % of peptide pool: 52.2182%
  H3.3: K27ME2, % of peptide pool: 11.913%
  H3.3: K27ME3, % of peptide pool: 2.973%
  H3.3: K27UN, % of peptide pool: 28.488%
  H3.3: K36AC, % of peptide pool: 1.2917%
  H3.3: K36ME1, % of peptide pool: 11.4367%
  H3.3: K36ME2, % of peptide pool: 56.7436%
  H3.3: K36ME3, % of peptide pool: 20.5666%
  H3.3: K36UN, % of peptide pool: 9.961%
  H4: K5AC, % of peptide pool: 7.467%
  H4: K5UN, % of peptide pool: 92.5334%
  H4: K8AC, % of peptide pool: 11.3876%
  H4: K8UN, % of peptide pool: 88.6124%
[3]; 2102EP cells, Mod Spec raw data, histone H4 K12 acetylated
  H4: K12AC, % of peptide pool: 6.714 % of peptide pool
[3]; 2102EP cells, Mod Spec raw data, histone H4 K12 unmodified
  H4: K12UN, % of peptide pool: 93.2862 % of peptide pool
[3]; 2102EP cells, Mod Spec raw data, histone H4 K16 acetylated
  H4: K16AC, % of peptide pool: 46.6822 % of peptide pool
[3]; 2102EP cells, Mod Spec raw data, histone H4 K16 unmodified
  H4: K16UN, % of peptide pool: 53.3178 % of peptide pool
[3]; 2102EP cells, Mod Spec raw data, histone H4 K20 acetylated
  H4: K20AC, % of peptide pool: 14.5151 % of peptide pool
[3]; 2102EP cells, Mod Spec raw data, histone H4 K20 dimethylated
  H4: K20ME2, % of peptide pool: 53.9426 % of peptide pool
[3]; 2102EP cells, Mod Spec raw data, histone H4 K20 monomethylated
  H4: K20ME1, % of peptide pool: 5.183 % of peptide pool
[3]; 2102EP cells, Mod Spec raw data, histone H4 K20 trimethylated
  H4: K20ME3, % of peptide pool: 2.177 % of peptide pool
[3]; 2102EP cells, Mod Spec raw data, histone H4 K20 unmodified
  H4: K20UN, % of peptide pool: 24.182 % of peptide pool
[3]; [7]
  change of histone modifications of the expected mode of action (Mod Spec): slightly increased H3K4me2/me3 marks
  off-target changes of histone modifications (Mod Spec): decrease in H4K16ac and H4K20ac
[4]
  CREB, STAT3 and STAT5 phosphorylation and total levels of β-Catenin and HSP60: decreased
  ERK1/2 phosphorylation: decreased
  p53 S15 phosphorylation: increased
